The target of experiment [1] is T1, hNav1.7 (Homo sapiens (Human), UniProt Q15858). As to the kind of experiment: Tritiated compound binding to membranes from cells heterologously expressing hNav1.7 and the β1 subunit (LBA). To be noted: competitive binding vs [3H]compound, membranes with hNav1.7 and β1 subunit; read-out: Nav1.7 LBA EVO IC50.
Experiment [2] deals with T1, hNav1.7. The experiment can be described thus: Electrophysiological assay (EP), voltage clamp on Syncropatch 384PE. The experiment is classed as cell-based. The note with it: CHO cells expressing Nav1.7, holding potential −50 mV, 7.5 min compound incubation; read-out: EP_SP hNav1.7 EVO IC50. For orientation: In patch-clamp work, channel activity is measured electrically.

`COc1cc(-c2cc(C(F)(F)F)ccc2F)c(F)cc1N1C(=O)CO[C@H]2CN(S(=O)(=O)Nc3ccon3)CC[C@@H]21` [Example 8, (4aS,8aS)-1-(2,2′-difluoro-5-methoxy-5′-(trifluoromethyl)-[1,1′-biphenyl]-4-yl)-N-(isoxazol-3-yl)-2-oxohexahydro-1H-pyrido[3,4-b][1,4]oxazine-6(7H)-sulfonamide]: the values for the half-inhibitory concentration (IC50) on hNav1.7 [1] and on hNav1.7 [2] were 82.8 nM and 4.92 nM, respectively.

Turning to `COc1cc(-c2cccc(OC(F)(F)F)c2)c(F)cc1N1C(=O)CO[C@H]2CN(S(=O)(=O)Nc3ccon3)CC[C@@H]21` [Example 30, (4aS,8aS)-1-(2-fluoro-5-methoxy-3′-(trifluoromethoxy)-[1,1′-biphenyl]-4-yl)-N-(isoxazol-3-yl)-2-oxohexahydro-H-pyrido[3,4-b][1,4]oxazine-6(7H)-sulfonamide], the results for the half-inhibitory concentration (IC50) at hNav1.7 [1] and on hNav1.7 [2] were 35.6 nM and 2.35 nM, respectively.

As to `COc1cc(-c2cccc(C(F)(F)F)c2)ccc1N1C(=O)CO[C@@H]2CN(S(=O)(=O)Nc3ccon3)CC[C@H]21` [Example 17, (4aR,8aR)-N-(isoxazol-3-yl)-1-(3-methoxy-3′-(trifluoromethyl)-[1,1′-biphenyl]-4-yl)-2-oxohexahydro-1H-pyrido[3,4-b][1,4]oxazine-6(7H)-sulfonamide], the IC50 at hNav1.7 [1] worked out at 214 nM; on hNav1.7 [2], 6.03 nM.

Take `COc1cc(-c2cccc(Cl)c2)c(F)cc1N1C(=O)CO[C@H]2CN(S(=O)(=O)Nc3ccon3)CC[C@@H]21` [Example 14, (4aS,8aS)-1-(3′-chloro-2-fluoro-5-methoxy-[1,1′-biphenyl]-4-yl)-N-(isoxazol-3-yl)-2-oxohexahydro-1H-pyrido[3,4-b][1,4]oxazine-6(7H)-sulfonamide]: the concentration for half-maximal inhibition (IC50) at hNav1.7 [1] came to 332 nM; at hNav1.7 [2], 7.21 nM.

As for `COc1cc(-c2ccc(F)c(C(F)(F)F)c2)c(F)cc1N1C(=O)CO[C@@H]2CN(S(=O)(=O)Nc3ccon3)CC[C@H]21` [Example 1, (4aR,8aR)-1-(2,4′-difluoro-5-methoxy-3′-(trifluoromethyl)-[1,1′-biphenyl]-4-yl)-N-(isoxazol-3-yl)-2-oxohexahydro-1H-pyrido[3,4-b][1,4]oxazine-6(7H)-sulfonamide], the IC50 on hNav1.7 [1] amounted to 44.3 nM; on hNav1.7 [2], 1.12 nM.

What is called IC50 is the concentration needed to halve the response being measured.

These data come from US10947251B2, “Therapeutic compounds and methods of use thereof” (GENENTECH, INC., priority 2018, dated 2021).
